Source: article PMC5736936, “Xylopine Induces Oxidative Stress and Causes G2/M Phase Arrest, Triggering Caspase-Mediated Apoptosis by p53-Independent Pathway in HCT116 Cells” (Oxidative Medicine and Cellular Longevity, 2017)
pIC50: −log10 of the molar value.

Experiments:
[1] = system: HCT116 cells; assay: Annexin V-FITC/PI staining assay (flow cytometry), with protection assays; format: cell-based, human
Description: For apoptosis detection, we used the FITC Annexin V Apoptosis Detection Kit I (BD Biosciences), and the analysis was performed according to the manufacturer's instructions. The cell fluorescence was determined by flow cytometry as described above. The protection assays using a caspase-3 inhibitor (Z-DEVD-FMK, BD Biosciences), a p53 inhibitor (cyclic pifithrin-α, Cayman Chemical, Ann Arbor, MI, USA), and an antioxidant N-acetyl-L-cysteine (NAC, Sigma-Aldrich Co.) were performed. In brief, the cells were pretreated for 2 h with 50 μM Z-DEVD-FMK and 10 μM cyclic pifithrin-α and for 1 h with 5 mM NAC, followed by incubation with 14 μM xylopine for 48 h. The cells were then trypsinized and the FITC Annexin V Apoptosis Detection assay was conducted as described above.

[2] = system: HCT116 cells; assay: Cellular GSH level; format: cell-based, human; conditions: HCT116, 1 h
Description: A quantification kit for reduced glutathione (L-γ-glutamyl-L-cysteinyl-glycine, GSH, Sigma-Aldrich Co.) was used to investigate cellular GSH level in xylopine-treated HCT116 cells and the analysis was performed according to the manufacturer's instructions.

[3] = system: HCT116 cells; assay: Cell viability by trypan blue exclusion assay; format: cell-based, human; conditions: for reduction of the number of viable cells: HCT116, trypan blue
Text: (§1) MCF7 (human breast carcinoma), HCT116 (human colon carcinoma), HepG2 (human hepatocellular carcinoma), SCC-9 (human oral squamous cell carcinoma), HSC-3 (human oral squamous cell carcinoma), HL-60 (human promyelocytic leukemia), K-562 (human chronic myelogenous leukemia), B16-F10 (murine melanoma), MRC-5 (human lung fibroblast), WT SV40 MEF (wild-type immortalized mouse embryonic fibroblast), and BAD KO SV40 MEF (BAD gene knockout immortalized mouse embryonic fibroblast) cell lines were obtained from the American Type Culture Collection (ATCC, Manassas, VA, USA). Cells were cultured in complete medium with appropriate supplements as recommended by ATCC. All cell lines were tested for mycoplasma using the Mycoplasma Stain Kit (Sigma-Aldrich) to validate the use of cells free from contamination. Primary cell culture of peripheral blood mononuclear cells (PBMC) was obtained by standard Ficoll density protocol. The Research Ethics Committee of the Oswaldo Cruz Foundation (Salvador, BA, Brazil) approved the experimental protocol (number 031019/2013). Cell viability was examined using trypan blue exclusion assay for all experiments.

[4] = system: HCT116 cells; assay: Cellular reactive oxygen species levels (DCF-DA); format: cell-based, human
Description: The levels of reactive oxygen species (ROS) were measured according to previously described using 2′,7′-dichlorofluorescin diacetate (DCF-DA) (Sigma-Aldrich Co.). In brief, cells were treated with xylopine for 1 and 3 h. Then, the cells were collected, washed with saline, and resuspended in FACS tubes with saline containing 5 μM DCF-DA for 30 min. Finally, the cells were washed with saline and the cell fluorescence was determined by flow cytometry as described above. The protection assay using the antioxidant NAC and catalase (Sigma-Aldrich Co.) was performed. In brief, the cells were pretreated for 1 h with 5 mM NAC or 2000 UI catalase and then incubated with xylopine in the established concentration for 1 h. The cells were then trypsinized and the ROS levels were measured as described above.

[5] = system: WT SV40 MEF (wild-type immortalized mouse embryonic fibroblast); assay: Cytotoxic activity in wild-type fibroblasts; format: cell-based; conditions: WT SV40 MEF cell line
Text: as §1
(§2) Cell viability was quantified using the alamarBlue assay according to Ahmed et al.. Cells were inserted in 96-well plates for all experiments (7 × 10^4 cells/mL for adherent cells or 3 × 10^5 cells/mL for suspended cells in 100 μL of medium). After 24 h, xylopine was dissolved in dimethyl sulfoxide (DMSO) and added to each well and incubated for 72 h. […] Four (for cell lines) or 24 h (for PBMCs) before the end of incubation, 20 μL of a stock solution (0.312 mg/mL) of the alamarBlue (resazurin, Sigma-Aldrich Co., Saint Louis, MO, USA) was added to each well. Absorbance at 570 nm and 600 nm was measured using the SpectraMax 190 Microplate Reader (Molecular Devices, Sunnyvale, CA, USA), and the drug effect was quantified as the percentage of control absorbance.

[6] = system: BAD KO SV40 MEF (BAD gene knockout immortalized mouse embryonic fibroblast); assay: Cytotoxic activity in BAD gene knockout fibroblasts; format: cell-based; conditions: BAD KO SV40 MEF cell line
Text: as §1, §2

[7] = system: HL-60 (human promyelocytic leukemia); assay: Cytotoxic activity, alamarBlue assay, 72 h; format: cell-based;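 on Selectivity index: SI is noncancer IC50 (MRC-5 or PBMC) divided by cancer cell IC50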
Text: as §1, §2

[8] = system: HepG2 (human hepatocellular carcinoma); assay: Cytotoxic activity, alamarBlue assay, 72 h; format: cell-based
Text: as §1, §2

[9] = system: MCF7 (human breast carcinoma); assay: Cytotoxic activity, alamarBlue assay, 72 h; format: cell-based;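 on Selectivity index: SI is noncancer IC50 (MRC-5 or PBMC) divided by cancer cell IC50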
Text: as §1, §2

[10] = system: HCT116 (human colon carcinoma); assay: Cytotoxic activity, alamarBlue assay, 72 h; format: cell-based;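 on Selectivity index: SI is noncancer IC50 (MRC-5 or PBMC) divided by cancer cell IC50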
Text: as §1, §2

[11] = system: SCC9 (human oral squamous cell carcinoma); assay: Cytotoxic activity, alamarBlue assay, 72 h; format: cell-based
Text: as §1, §2

[12] = system: K562 (human chronic myelogenous leukemia); assay: Cytotoxic activity, alamarBlue assay, 72 h; format: cell-based;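 on Selectivity index: SI is noncancer IC50 (MRC-5 or PBMC) divided by cancer cell IC50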
Text: as §1, §2

[13] = system: HSC3 (human oral squamous cell carcinoma); assay: Cytotoxic activity, alamarBlue assay, 72 h; format: cell-based
Text: as §1, §2

[14] = system: B16-F10 (murine melanoma); assay: Cytotoxic activity, alamarBlue assay, 72 h; format: cell-based
Text: as §1, §2

COc1ccc2c(c1)C[C@@H]1NCCc3cc4c(c-2c31)OCO4 [XYL, xylopine]
xylopine-induced apoptosis on cotreatment with caspase-3 inhibitor (Z-DEVD-FMK) ([1]; HCT116, 50 μM Z-DEVD-FMK 2 h, then 14 μM xylopine 48 h): prevented
xylopine-induced increase of cell death by apoptosis on cotreatment with NAC ([1]; HCT116, 5 mM NAC 1 h, then 14 μM xylopine 48 h): prevented
early and late apoptosis ([1]; HCT116, annexin V/PI, 24 and 48 h, p < 0.05): significantly increased
necrotic cells ([1]; HCT116, annexin V/PI, 48 h, p < 0.05): significant increase
GSH levels [2]: decreased
reduction of the number of viable cells ([3]; 3.5 μM, 24 h): 50.2%
reduction of the number of viable cells ([3]; 3.5 μM, 48 h): 79.9%
reduction of the number of viable cells ([3]; 7 μM, 24 h): 64.4%
reduction of the number of viable cells ([3]; 7 μM, 48 h): 84.6%
reduction of the number of viable cells ([3]; 14 μM, 24 h): 71.8%
reduction of the number of viable cells ([3]; 14 μM, 48 h): 89.4%
number of nonviable cells ([3]; HCT116, trypan blue, 3.5, 7, 14 μM, 24 and 48 h): No significant increase
xylopine-induced increase in intracellular ROS level on cotreatment with NAC ([4]; HCT116, 5 mM NAC 1 h, then 14 μM xylopine 1 h): prevented
xylopine-induced increase in intracellular ROS levels on cotreatment with catalase ([4]; HCT116, 2000 UI catalase 1 h, then 14 μM xylopine 1 h): prevented
ROS levels ([4]; HCT116, DCF-DA, 1 and 3 h): caused an increase in the ROS levels
pIC50 [5]: 5.10
pIC50 [6]: 5.19
pIC50 ([7]; Homo sapiens, HL-60, alamarBlue, 72 h): 4.73
Selectivity index ([7]; IC50(MRC5)/IC50(HL-60)): 1.3
Selectivity index ([7]; IC50(PBMC)/IC50(HL-60)): 1
pIC50 ([8]; Homo sapiens, HepG2, alamarBlue, 72 h): 5.03
Selectivity index ([8]; IC50(MRC5)/IC50(HepG2)): 2.6
Selectivity index ([8]; IC50(PBMC)/IC50(HepG2)): 2
pIC50 ([9]; Homo sapiens, MCF7, alamarBlue, 72 h): 4.92
Selectivity index ([9]; IC50(MRC5)/IC50(MCF7)): 2
Selectivity index ([9]; IC50(PBMC)/IC50(MCF7)): 1.5
pIC50 ([10]; Homo sapiens, HCT-116, HCT116, alamarBlue, 72 h): 5.19
Selectivity index ([10]; IC50(MRC5)/IC50(HCT116)): 3.8
Selectivity index ([10]; IC50(PBMC)/IC50(HCT116)): 2.9
pIC50 ([11]; Homo sapiens, SCC-9, SCC9, alamarBlue, 72 h): 4.58
Selectivity index ([11]; IC50(MRC5)/IC50(SCC-9)): 0.9
Selectivity index ([11]; IC50(PBMC)/IC50(SCC-9)): 0.7
pIC50 ([12]; Homo sapiens, K562, alamarBlue, 72 h): 5.11
Selectivity index ([12]; IC50(MRC5)/IC50(K-562)): 3.1
Selectivity index ([12]; IC50(PBMC)/IC50(K-562)): 2.4
pIC50 ([13]; Homo sapiens, HSC-3, HSC3, alamarBlue, 72 h): 4.80
Selectivity index ([13]; IC50(MRC5)/IC50(HSC-3)): 1.5
Selectivity index ([13]; IC50(PBMC)/IC50(HSC-3)): 1.2
Selectivity index ([14]; IC50(MRC5)/IC50(B16-F10)): 2.5
Selectivity index ([14]; IC50(PBMC)/IC50(B16-F10)): 1.9
pIC50 ([14]; Mus musculus, B16-F10, alamarBlue, 72 h): 5.02
